Measurements from patent publication EP1803452A1, “ESTER DERIVATIVE AND PHARMACEUTICAL USE THEREOF” (Japan Tobacco, Inc., priority 2004, dated 2006).

Experiments:
[1] = Metabolic stability test in liver S9; assay type: in vitro ADME; details: pH 7.4, human liver S9 2 mg protein/mL, LC/MS; for remaining at 10 min: unchanged form after 10 minutes at 37°C, read-out: Remaining rate in human liver S9 (%/10min); for remaining at 1 h: unchanged form after 60 minutes at 37°C, read-out: Remaining rate in human liver S9 (%/60min)
In short: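 Compound from DMSO solution was incubated at 37°C with human liver S9 (final 2 mg protein/mL) in 100 mM potassium phosphate pH 7.4 with an NADPH-regenerating system for 0, 10 and 60 minutes. Reactions were stopped with acetonitrile/0.1% formic acid. Unchanged compound was measured by LC/MS as remaining rate (%) relative to zero time.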

[2] = Metabolic stability test in plasma; assay type: in vitro ADME, human; details: LC/MS; for remaining at 10 min: unchanged form after 10 minutes at 37°C in human plasma, read-out: Remaining rate in human plasma (%/10min); for remaining at 1 h: unchanged form after 60 minutes at 37°C in human plasma, read-out: Remaining rate in human plasma (%/60min)
In short: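 Remaining rate (%) versus zero time was derived from LC/MS measurement of parent compound after centrifugation. Plasma from human, mouse and hamster received DMSO-dissolved compound and was held at 37°C for 0, 10 or 60 minutes before acetonitrile containing formic acid (final 0.1%) stopped the reaction.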

[3] = Stability test in buffer (pH 7.4); assay type: physicochemical; details: phosphate buffer/acetonitrile 7:3, 100 mM potassium phosphate buffer (pH 7.4) and acetonitrile 7:3 (v/v), LC/MS; for remaining at 10 min: 10 minutes at 37°C, read-out: Buf. remaining rate (%/10min); for remaining at 1 h: 60 minutes at 37°C, read-out: Buf. remaining rate (%/60min)
In short: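 Parent compound measured by LC/MS after 0, 10 or 60 min at 37°C in a 7:3 (v/v) mix of 100 mM potassium phosphate buffer and acetonitrile, with the reaction stopped by acetonitrile plus formic acid (final 0.1%). Percentage remaining is expressed relative to the zero-time amount.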

Row | remaining at 10 min [1] | remaining at 1 h [1] | remaining at 10 min [2] | remaining at 1 h [2] | remaining at 10 min [3] | remaining at 1 h [3] | SMILES
1 | 0% | 0% | 53% | 0% | 102% | 105% | CCOC(=O)c1ccc(OC(=O)CCCc2ccc(NC(=O)c3ccc(C)nc3-c3ccc(C(F)(F)F)cc3)c(C(=O)N(C)C)c2)cc1 [Compound 1-71, 4-[4-(3-dimethylcarbamoyl-4-{[6-methyl-2-(4-trifluoromethylphenyl)pyridine-3-carbonyl]amino}phenyl)butyryloxy]benzoic acid ethyl ester]
2 | 20% | 4% | 0% | 0% | 96% | 95% | CN(C)C(=O)c1cc(CCCC(=O)Oc2ccc(C(=O)OCc3ccc(Cl)cc3)cc2)ccc1NC(=O)c1ccccc1-c1ccc(C(F)(F)F)cc1 [Compound 1-79, 4-[4-(3-dimethylcarbamoyl-4-{(4'-trifluoromethylbiphenyl-2-carbonyl)amino}phenyl)butyryloxy]benzoic acid 4-chlorobenzyl ester]
3 | 5% | 0% | 4% | 0% | 100% | 101% | Cc1ccc(C(=O)Nc2ccc(CCCC(=O)Oc3ccc(C(=O)OCc4ccccc4)cc3)cc2C(=O)N(C)C)c(-c2ccc(C(F)(F)F)cc2)n1 [Compound 1-80, 4-[4-(3-dimethylcarbamoyl-4-{[6-methyl-2-(4-trifluoromethylphenyl)pyridine-3-carbonyl]amino}phenyl)butyryloxy]benzoic acid benzyl ester]
4 | 0% | 0% | 39% | 0% | 99% | 99% | CN(C)C(=O)c1cc(CCCC(=O)Oc2ccc(C(=O)OCc3cccnc3)cc2)ccc1NC(=O)c1ccccc1-c1ccc(C(F)(F)F)cc1 [Compound 1-83, 4-[4-(3-dimethylcarbamoyl-4-((4'-trifluoromethylbiphenyl-2-carbonyl)amino}phenyl)butyryloxy]benzoic acid pyridin-3-ylmethyl ester]
5 | 1% | 0% | 21% | 0% | 99% | 101% | CN(C)C(=O)c1cc(CCCC(=O)Oc2ccc(C(=O)OCc3ccncc3)cc2)ccc1NC(=O)c1ccccc1-c1ccc(C(F)(F)F)cc1 [Compound 1-84, 4-[4-(3-dimethylcarbamoyl-4-{(4'-trifluoromethylbiphenyl-2-carbonyl)amino}phenyl)butyryloxy]benzoic acid pyridin-4-ylmethyl ester]

Further lines, the molecule ahead of its results:

Row | SMILES | remaining at 10 min [1] | remaining at 1 h [1] | remaining at 10 min [2] | remaining at 1 h [2] | remaining at 10 min [3] | remaining at 1 h [3]
6 | COC(=O)c1cc(C(=O)OC(C)C)ccc1OC(=O)CCCc1ccc(NC(=O)c2ccc(C)nc2-c2ccc(C(F)(F)F)cc2)c(C(=O)N(C)C)c1 [Compound 1-72, 4-[4-(3-dimethylcarbamoyl-4-{[6-methyl-2-(4-trifluoromethylphenyl)pyridine-3-carbonyl]amino}phenyl)butyryloxy]isophthalic acid 1-isopropyl ester 3-methyl ester] | 4% | 0% | 0% | 0% | 113% | 112%
7 | CCc1cc(C(=O)OC)cc(Cl)c1OC(=O)CCCc1ccc(NC(=O)c2ccc(C)nc2-c2ccc(C(F)(F)F)cc2)c(C(=O)N(C)C)c1 [Compound 1-73, 3-chloro-4-[4-(3-dimethylcarbamoyl-4-{[6-methyl-2-(4-trifluoromethylphenyl)pyridine-3-carbonyl]amino}phenyl)butyryloxy]-5-ethylbenzoic acid methyl ester] | 10% | 0% | 78% | 19% | 101% | 101%
8 | COC(=O)c1cc(Cl)c(OC(=O)CCCc2ccc(NC(=O)c3ccc(C)nc3-c3ccc(C(F)(F)F)cc3)c(C(=O)N(C)C)c2)c(C(C)C)c1 [Compound 1-74, 3-chloro-4-[4-(3-dimethylcarbamoyl-4-{[6-methyl-2-(4-trifluoromethylphenyl)pyridine-3-carbonyl]amino}phenyl)butyryloxy]-5-isopropylbenzoic acid methyl ester] | 24% | 9% | 77% | 19% | 102% | 101%
9 | CCCOC(=O)c1cc(Cl)c(OC(=O)CCCc2ccc(NC(=O)c3ccc(C)nc3-c3ccc(C(F)(F)F)cc3)c(C(=O)N(C)C)c2)c(OC)c1 [Compound 1-75, 3-chloro-4-[4-(3-dimethylcarbamoyl-4-{[6-methyl-2-(4-trifluoromethylphenyl)pyridine-3-carbonyl]amino}phenyl)butyryloxy]-5-methoxybenzoic acid propyl ester] | 23% | 3% | 0% | 0% | 113% | 124%
10 | CC(C)OCCOC(=O)c1ccc(OC(=O)CCCc2ccc(NC(=O)c3ccccc3-c3ccc(C(F)(F)F)cc3)c(C(=O)N(C)C)c2)cc1 [Compound 1-76, 4-[4-(3-dimethylcarbamoyl-4-{(4'-trifluoromethylbiphenyl-2-carbonyl)amino}phenyl)butyryloxy]benzoic acid 2-isopropoxyethyl ester] | 5% | 2% | 50% | 1% | 99% | 100%
11 | CC(=O)NCCOC(=O)c1ccc(OC(=O)CCCc2ccc(NC(=O)c3ccccc3-c3ccc(C(F)(F)F)cc3)c(C(=O)N(C)C)c2)cc1 [Compound 1-77, 4-[4-(3-dimethylcarbamoyl-4-{(4'-trifluoromethylbiphenyl-2-carbonyl)amino}phenyl)butyryloxy]benzoic acid 2-acetylaminoethyl ester] | 0% | 0% | 59% | 2% | 99% | 100%
12 | CN(C)C(=O)c1cc(CCCC(=O)Oc2ccc(C(=O)OCC(=O)OCc3ccccc3)cc2)ccc1NC(=O)c1ccccc1-c1ccc(C(F)(F)F)cc1 [Compound 1-78, 4-[4-(3-dimethylcarbamoyl-4-{(4'-trifluoromethylbiphenyl-2-carbonyl)amino}phenyl)butyryloxy]benzoic acid benzyloxycarbonylmethyl ester] | 10% | 2% | 51% | 2% | 97% | 97%
13 | Cc1ccc(C(=O)Nc2ccc(CCCC(=O)Oc3ccc(C(=O)OC(C)C)cc3)cc2C(=O)N(C)C)c(-c2ccc(C(F)(F)F)cc2)n1 [Compound 1-81, 4-[4-(3-dimethylcarbamoyl-4-{[6-methyl-2-(4-trifluoromethylphenyl)pyridine-3-carbonyl]amino}phenyl)butyryloxy]benzoic acid isopropyl ester] | 4% | 1% | 51% | 2% | 99% | 97%
14 | CN(C)C(=O)c1cc(CCCC(=O)Oc2ccc(C(=O)OCc3ccccn3)cc2)ccc1NC(=O)c1ccccc1-c1ccc(C(F)(F)F)cc1 [Compound 1-82, 4-[4-(3-dimethylcarbamoyl-4-{(4'-trifluoromethylbiphenyl-2-carbonyl)amino}phenyl)butyryloxy]benzoic acid pyridin-2-ylmethyl ester] | 0% | 0% | 17% | 0% | 100% | 103%
15 | CN(C)C(=O)COC(=O)c1ccc(OC(=O)CCCc2ccc(NC(=O)c3ccccc3-c3ccc(C(F)(F)F)cc3)c(C(=O)N(C)C)c2)cc1 [Compound 1-85, 4-[4-(3-dimethylcarbamoyl-4-{(4'-trifluoromethylbiphenyl-2-carbonyl)amino}phenyl)butyryloxy]benzoic acid dimethylcarbamoylmethyl ester] | 0% | 0% | 61% | 4% | 103% | 102%
16 | COC(=O)COC(=O)c1ccc(OC(=O)CCCc2ccc(NC(=O)c3ccccc3-c3ccc(C(F)(F)F)cc3)c(C(=O)N(C)C)c2)cc1 [Compound 1-86, 4-[4-(3-dimethylcarbamoyl-4-{(4'-trifluoromethylbiphenyl-2-carbonyl)amino}phenyl)butyryloxy]benzoic acid methoxycarbonylmethyl ester] | 0% | 0% | 40% | 0% | 99% | 103%
